Counter-ions that a name gives are not always drawn. Each block holds one compound with its values, some of them ahead of it.
Key:
human CYP11B1 = target: T1, human CYP11B1 (Homo sapiens, UniProt P15538); assay: V79 MZh 11B1 cells inhibition test; format: cell-based; conditions: for IC50: hamster fibroblasts which express human CYP11B1, deoxycorticosterone substrate 100 nM, read-out: IC50 V79 11B1 hCYP11B1
T1 construct: expressed in transfected cells; host or cells: V79 MZh11B1 (Chinese hamster lung fibroblasts)
T1 sequence (P15538 25-503): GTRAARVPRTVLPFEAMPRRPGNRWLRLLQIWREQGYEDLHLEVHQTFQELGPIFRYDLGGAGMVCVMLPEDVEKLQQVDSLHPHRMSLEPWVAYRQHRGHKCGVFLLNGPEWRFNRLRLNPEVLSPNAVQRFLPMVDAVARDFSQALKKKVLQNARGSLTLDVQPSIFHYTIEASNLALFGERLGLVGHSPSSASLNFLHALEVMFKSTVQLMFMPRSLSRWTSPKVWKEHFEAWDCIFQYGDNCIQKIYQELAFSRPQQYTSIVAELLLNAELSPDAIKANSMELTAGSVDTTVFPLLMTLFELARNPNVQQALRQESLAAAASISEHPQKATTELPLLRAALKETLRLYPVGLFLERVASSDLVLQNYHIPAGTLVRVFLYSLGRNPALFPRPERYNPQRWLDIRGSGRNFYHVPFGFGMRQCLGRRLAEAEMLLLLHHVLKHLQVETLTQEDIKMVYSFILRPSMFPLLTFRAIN
Method: (§1) Both cell lines were cultured in DMEM^+ containing […] and the antibiotics penicillin and streptomycin (10%) for protection from bacterial contamination. The cells were passaged every 2-3 days after treatment with trypsin/EDTA because the doubling rate was 1-2 days depending on the number of cells. […] When there was further need, freshly thawed cells were employed.
Thereafter, the plate was stored at 37° C. and […] in a CO2 incubator. […] Controls without inhibitor were treated in the same way. The enzyme reactions were quenched by extracting the supernatant with 500 μl of EtOAc. The samples were centrifuged (10,000 g, 2 min), the solvent was removed and evaporated.
(§2) It was calculated by determining the percent inhibition for at least 3 different inhibitor concentrations, which must all be in the linear range of the sigmoidal IC50 curve (log C/% inhibition).
(§3) The calculation was effected by linear regression. The values determined were used only if they formed a straight line with a reliability of […].
(§4) The plate was developed twice with the mobile solvent chloroform:methanol:water (300:20:1). Unlabeled 11-deoxycorticosterone and corticosterone were applied as a reference for the CYP11B1 reaction. For the CYP11B2 reaction, 11-deoxycorticosterone, corticosterone, 18-hydroxycorticosterone and aldosterone were used as references. The detection of the unlabeled references was effected at 260 nm. Subsequently, imaging plates (BAS MS2340, for ^14C samples, Raytest, Straubenhardt, Germany) were exposed to the HPTLC plates for 48 h. The imaging plates were scanned with the phosphoimager system Fuji FLA 3000 (Raytest, Straubenhardt, Germany), and the steroids were quantified.

human CYP11B2 [1] = target: T2, human CYP11B2 (Homo sapiens, UniProt P19099); assay: Screening test in transgenic fission yeast (S. pombe PE1) expressing human CYP11B2; format: cell-based; parameters: expressed in transfected cells; conditions: S. pombe cells which express human CYP11B2, deoxycorticosterone substrate 100 nM, inhibitor 500 nM
T2 sequence (P19099 25-503): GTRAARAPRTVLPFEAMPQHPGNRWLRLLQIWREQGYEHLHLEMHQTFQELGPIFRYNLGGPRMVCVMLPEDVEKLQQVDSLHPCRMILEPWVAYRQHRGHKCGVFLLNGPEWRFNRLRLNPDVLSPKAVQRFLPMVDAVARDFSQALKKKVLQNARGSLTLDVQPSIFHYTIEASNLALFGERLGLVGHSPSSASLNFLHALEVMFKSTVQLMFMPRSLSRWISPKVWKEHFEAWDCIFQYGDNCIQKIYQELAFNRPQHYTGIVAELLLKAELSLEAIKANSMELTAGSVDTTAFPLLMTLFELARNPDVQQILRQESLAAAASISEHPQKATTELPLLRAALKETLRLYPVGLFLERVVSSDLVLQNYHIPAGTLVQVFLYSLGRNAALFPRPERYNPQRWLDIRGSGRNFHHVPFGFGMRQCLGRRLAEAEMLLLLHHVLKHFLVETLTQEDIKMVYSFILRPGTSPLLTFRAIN
Method: 492.5 μl of this cell suspension was admixed with 5 μl of inhibitor solution (50 μM of the compound to be tested in ethanol or DMSO) and incubated at 32° C. for 15 min. Controls were admixed with 5 μl of ethanol. […] The test was quenched by extracting the sample with 500 μl of EtOAc. After centrifugation (10,000 g, 2 min), the EtOAc phase was removed and evaporated to dryness. […] The reaction of the substrate to form corticosterone was analyzed by HPTLC (see below).
The quantification of the spots for the substrate deoxycorticosterone and the products corticosterone (and, if detectable, 18-hydroxycorticosterone and aldosterone) was effected with the related evaluation program AIDA. […] The calculation of the conversion rate was effected according to equation 1.
as §4

human CYP11B2 [2] = target: T2, human CYP11B2; assay: V79 MZh 11B2 cells inhibition test; format: cell-based; parameters: expressed in transfected cells; host or cells: V79 MZh11B2 (Chinese hamster lung fibroblasts); conditions: for IC50: hamster fibroblasts which express human CYP11B2, deoxycorticosterone substrate 100 nM, read-out: IC50 V79 11B2 hCYP11B2
Method: as §1
Thereafter, the plate was stored at 37° C. and […] in a CO2 incubator. The V79 MZh 11B1 cells were incubated for 120 min, and the V79 MZh 11B2 cells were incubated for 40 min. Controls without inhibitor were treated in the same way. The enzyme reactions were quenched by extracting the supernatant with 500 μl of EtOAc. The samples were centrifuged (10,000 g, 2 min), the solvent was removed and evaporated.
For V79 MZh11B2, the conversion rate was obtained in accordance with equation 3: […]
as §2, §3, §4

human CYP17 = target: T3, human CYP17 (Homo sapiens, UniProt P05093); assay: Percent inhibition of CYP17 (membrane fraction of E. coli pJL17/OR); format: biochemical; conditions: E. coli which expresses human CYP17; 5 mg/ml protein; progesterone substrate 2.5 μM; inhibitor 2.5 μM; read-out: % Inhibition human CYP17
T3 construct: made in house; host or cells: E. coli pJL17/OR (membrane fraction)
T3 sequence (P05093 1-508): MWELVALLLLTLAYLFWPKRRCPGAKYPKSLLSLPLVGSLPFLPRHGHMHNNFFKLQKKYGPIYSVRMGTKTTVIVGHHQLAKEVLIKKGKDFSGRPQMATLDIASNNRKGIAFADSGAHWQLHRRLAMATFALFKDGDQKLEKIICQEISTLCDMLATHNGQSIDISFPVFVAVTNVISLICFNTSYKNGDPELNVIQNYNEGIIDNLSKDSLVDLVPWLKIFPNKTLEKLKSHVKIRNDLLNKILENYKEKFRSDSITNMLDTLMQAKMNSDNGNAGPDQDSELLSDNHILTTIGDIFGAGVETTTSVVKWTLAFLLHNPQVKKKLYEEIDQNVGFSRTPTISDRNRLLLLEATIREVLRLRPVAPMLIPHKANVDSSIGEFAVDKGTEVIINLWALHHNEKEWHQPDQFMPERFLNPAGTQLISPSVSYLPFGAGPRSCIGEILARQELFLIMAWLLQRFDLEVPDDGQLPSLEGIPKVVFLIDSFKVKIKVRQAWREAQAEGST
Method: The recombinantly altered E. coli strain pJL17/OR, in which human CYP17 and rat NADPH-P450-reductase were coexpressed, was grown and stored according to the method of Ehmer et al. (Ehmer, P. B. et al., J. Steroid Biochem. Mol. Biol. 75: 57-63 (2000)). For isolating the membrane fraction, 5 ml of the bacterial cell suspension with an OD578 of 50 was washed with phosphate buffer (0.05 M; pH 7.4; 1 mM MgCl2; 0.1 mM EDTA and 0.1 mM DTT). The bacteria were removed by centrifugation and resuspended in 10 ml of ice cold TES buffer (0.1 M tris-acetate; pH 7.8; 0.5 mM EDTA; 0.5 M sucrose). Four milligrams of lysozyme in 10 ml of ice cold water was added to obtain a final concentration of 0.2 mg/ml. This was followed by incubation for 30 minutes under continued shaking on ice. The spheroblasts were obtained by a renewed centrifugation step at 12,000 g for 10 min and again resuspended in 3 ml of ice cold phosphate buffer (composition see above, additionally 0.5 mM PMSF).
After freezing and thawing, the cells were lysed on ice with an ultrasonic disintegrator. The whole cells and the cell debris were centrifuged off at 3000 g for 7 min. The supernatant was again centrifuged at 50,000 g for 20 min at 4° C. A membrane pellet sedimented and was resuspended in 2 ml of phosphate buffer (composition see above) with […] by means of an Ultra-Turrax mixer. […] Aliquots with an approximate protein concentration of 5 mg/ml were stored at −70° C. until use.
Control incubations were performed in parallel with 5 μl DMSO without urea. The reaction was started by adding 50 μl of a membrane suspension diluted 1 to 5 in phosphate buffer (0.8 to 1 mg of protein per ml). After thoroughly mixing the components, the mixture was incubated at 37° C. for 30 min.
The steroids were extracted with 1 ml of EtOAc. […] After the centrifugation, 800 μl of the organic phase was removed, placed into a new vessel and evaporated to dryness. The samples were dissolved in 50 μl of a water-methanol mixture (1:1) and analyzed by HPLC. The substrate conversion was calculated from the ratio of the areas of the product peaks (17α-hydroxyprogesterone and 16α-hydroxyprogesterone) to that of the substrate peak. The activity of the inhibitors was calculated from the reduced substrate conversion after the addition of inhibitors in accordance with the following formula: […]

human placental CYP19 = target: T4, human placental CYP19 (Homo sapiens, UniProt P11511); assay: IC50 of CYP19 (human placental microsomes); format: biochemical; conditions: human placental CYP19; testosterone substrate 2.5 μM
T4 construct: The enzyme was obtained from the microsome fraction of fresh human placenta; from tissue; host or cells: human placenta, microsomal fraction
T4 sequence (P11511 1-503): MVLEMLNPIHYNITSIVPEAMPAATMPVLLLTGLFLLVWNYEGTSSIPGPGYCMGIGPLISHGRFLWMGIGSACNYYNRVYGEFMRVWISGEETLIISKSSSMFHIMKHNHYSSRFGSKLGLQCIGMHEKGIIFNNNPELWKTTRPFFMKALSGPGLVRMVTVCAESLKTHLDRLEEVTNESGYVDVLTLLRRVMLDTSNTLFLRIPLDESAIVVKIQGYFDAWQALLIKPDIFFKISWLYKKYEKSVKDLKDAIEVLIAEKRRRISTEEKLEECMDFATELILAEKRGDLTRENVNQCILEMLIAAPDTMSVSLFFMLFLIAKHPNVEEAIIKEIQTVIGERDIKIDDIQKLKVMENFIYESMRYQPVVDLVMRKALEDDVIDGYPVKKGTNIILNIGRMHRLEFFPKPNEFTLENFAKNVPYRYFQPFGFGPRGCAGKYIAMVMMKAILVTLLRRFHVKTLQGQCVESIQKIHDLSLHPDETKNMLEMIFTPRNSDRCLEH
Method: The isolated microsomes were suspended in a minimum volume of phosphate buffer (0.05 M; pH 7.4; […]). In addition, DTT (10 mM) and EDTA (1 mM) were added to protect the enzyme from degradation reactions.
[…] […] The compounds to be tested were dissolved in DMSO and diluted with buffer to the desired concentration. The final DMSO concentration of the control and inhibitor incubations was about 20%. Each vessel was preincubated in a water bath at 30° C. for 5 min. The reaction was started by adding the microsomal protein (0.1 mg). The total volume of each mixture was 200 μl. After 14 min, the reaction was quenched by adding 200 μl of ice cold 1 mM HgCl2 solution. Two hundred microliters of a 2% aqueous suspension of dextran-coated charcoal, DCC) was added for absorbing the steroids, and the vessels were shaken for 20 min. Thereafter, the charcoal was centrifuged off at 1500 g for 5 min. The radioactive water present in the supernatant (^3H2O) was assayed by scintillation measurement using an LKB-Wallac beta counter. The calculation of the IC50 values was effected by a semilogarithmic plot of the percent inhibition against the inhibitor concentration.

melting point: 167 °C
SMILES: C(=C1/CCc2ccccc21)/c1ccncc1 (as salt: oxalate) [Compound 2a, 4-[(E)-2,3-Dihydro-1H-indane-1-ylidenemethyl]pyridine Oxalate]

melting point: 234 °C
SMILES: Clc1ccc2c(c1)CC/C2=C\c1cccnc1 (as salt: hydrochloride) [Compound 7a, 3-[(E)-(5-Chloro-2.3-dihydro-1H-indane-1-ylidene)methyl]pyridine Hydrochloride]

inhibition at 2.5 µM (human CYP17): 8% | IC50 (human placental CYP19): 6700 nM | inhibition at 0.5 µM (human CYP11B2 [1]; read-out: % Inhibition human hCYP11B2): 55%
SMILES: C(=C1/CCc2ccccc21)/c1ccncc1 [Compound 2a, 4-[(E)-2,3-Dihydro-1H-indane-1-ylidenemethyl]pyridine Oxalate]

The remaining lines, values behind:

SMILES: C/C(=C1/CCc2ccccc21)c1cccnc1.Cl [Compound 38a, 3-[(1E)-1-(2,3-Dihydro-1H-indane-1-ylidene)ethyl]pyridine Hydrochloride]
IC50 (human CYP11B1): 159 nM | % Inhibition human hCYP11B2 (human CYP11B2 [1]): 67% | IC50 (human CYP11B2 [2]): 96.1 nM

SMILES: Clc1ccc2c(c1)CC/C2=C\c1ccncc1 (as salt: hydrochloride) [Compound 8a, 4-[(E)-(5-Chloro-2,3-dihydro-1H-indane-1-ylidene)methyl]pyridine Hydrochloride]
melting point: 213 °C

SMILES: C(=C1/CCc2ccccc21)/c1cnc[nH]1 (as salt: hydrochloride) [Compound 42a, 5-[(E)-2,3-Dihydro-1H-indane-1-ylidenemethyl]-1H-imidazole]
melting point: 148 to 151 °C

SMILES: c1cncc(-c2ccc3cccc4c3c2CC4)c1 [Compound 50, 3-(1,2-Dihydroacenaphthylene-3-yl)pyridine]
Inhibition of human CYP11B1, in words (human CYP11B1; V79 cells): very weak inhibition | IC50 (human CYP11B1): 2450 nM | Selectivity factor IC50 (CYP11B1)/IC50 (CYP11B2) (human CYP11B2 [2]; V79 cells expressing human CYP11B1 or CYP11B2): 245 | IC50 (human CYP11B2 [2]): 10 nM

— patent US20090105278A1, “Selective inhibitors of human corticosteroid syntheses” (Universitat Des Saarlandes, priority 2004, published 2009)
